The term Emax denotes the greatest response seen or fitted, relative to the assay's reference.

One assay has as its target T1, M1 muscarinic receptor (Homo sapiens, UniProt P11229).
T1 construct: expressed in transfected cells; host or cells: CHO (M1-CHO)
T1 sequence (P11229 1-460): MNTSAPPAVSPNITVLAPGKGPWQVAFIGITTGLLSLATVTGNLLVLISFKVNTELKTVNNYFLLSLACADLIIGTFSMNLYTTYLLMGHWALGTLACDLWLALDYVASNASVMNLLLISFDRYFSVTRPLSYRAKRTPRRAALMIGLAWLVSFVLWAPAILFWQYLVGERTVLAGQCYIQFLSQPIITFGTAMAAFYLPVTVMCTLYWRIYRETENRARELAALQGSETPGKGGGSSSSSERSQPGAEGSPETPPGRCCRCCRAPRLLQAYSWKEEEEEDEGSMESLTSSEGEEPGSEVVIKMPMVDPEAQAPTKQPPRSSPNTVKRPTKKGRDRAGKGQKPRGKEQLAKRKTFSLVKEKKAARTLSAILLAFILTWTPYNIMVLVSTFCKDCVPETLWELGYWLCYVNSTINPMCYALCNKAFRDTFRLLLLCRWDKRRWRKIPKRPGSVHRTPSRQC
The assay is described as follows: Functional mobilization of intracellular calcium (FLIPR), M1-CHO cells. Type of assay: cell-based. Particulars: for Emax: 100% efficacy is the maximum response obtained using Carbachol as a control; for M1 Activity: M1-CHO cells, FLIPR calcium mobilization. The procedure:
(§1) Functional Mobilization of Intracellular Calcium to Determine Muscarinic Receptor Activity:
(§2) CHO cells expressing muscarinic receptors (M1 to M5) are grown as monolayers in tissue culture flasks at 37° C. in a humidified atmosphere containing 5% CO2 and passaged every 3-5 days. The growth media is Dulbecco's modified eagles medium (DMEM, Gibco Cat# 12430-054), containing 25 mM Hepes and supplemented with Fetal Bovine Serum (Hyclone, cat# SH30071.03), 0.1 mM of MEM non-essential amino acids (GIBCO, Cat# 11140-050), 1 mM MEM Sodium Pyruvate (GIBCO Cat# 11360-070) and 100 units/ml of Penicillin G and 100 μg/ml of Streptomycin (GIBCO Cat# 15140-122). The recombinant muscarinic receptor cell lines are grown under antibiotic pressure with media containing 25 μg/ml zeocin and 500 μg/ml G418 (M1-CHO), 4 μg/ml puromycin, 50 μg/ml zeocin and 2.5 μg/ml blasticidin (M2 and M4-CHO) or 50 μg/ml zeocin and 4 μg/ml puromycin (M3 and M5-CHO).
(§3) Cells are harvested at 80-90% confluence using Versene (GIBCO Cat# 15040-066), collected by centrifugation and seeded 18-24 hrs prior to running the calcium assay at a density of 5,000-10,000 cells/well in […], clear-bottomed 384-well plates (BD Biocoat, poly-D-lysine, Cat#356663). The day of the experiment, the cells are washed with a plate washer (Bioteck Instruments, ELX 405) using bath1 buffer (140-mM NaCl, 4.5-mM KCl, 2-mM CaCl2, 1-mM MgCl2, 10-mM Hepes-Na, 10-mM Glucose, pH 7.4, with NaOH) containing 1 mM Probenecid. Next, the calcium dye Fluo-3 (25 μl/well of Fluo-3 AM at 4 μM, Molecular Probes F-1241, in Bath 1 buffer containing 1 mM Probenecid) is added to the 25 μl of Bath 1 remaining in each well after the plate wash and the dye is loaded at 37° C. in the tissue culture incubator for 60-90 min. The fluorescent dye is removed using the plate washer with Bath 1 containing 1 mM Probenecid, leaving 25 μl/well of this solution after the wash. Alternatively, cells can be loaded with the calcium indicator from Molecular Devices (Calcium 3 Assay Reagents, Cat # R7181) adding 5 μl of a 5× solution dye in Bath 1 containing 1 mM Probenecid (10 ml per dye flask cat# R7182 to generate a solution 20×) to 20 μl of the same buffer. After loading for 60 min, the experiment can be run without having to remove the dye.
(§4) Compounds are prepared at a 2× fold concentration in a 96-well plate (round bottom, Costar Corning cat# 3656), by reconstituting the pre-spotted compounds in bath 1 containing 1 mM probenecid. The final concentration DMSO is 0.5%, and the amount of DMSO is normalized across the assay plate. To determine an agonist action of the compounds on muscarinic receptors, the reconstituted compounds are added (25 μl compound/well) to the cell assay plate (containing 25 μl/well) using the multi-channel robotic system of the FLIPR 3 Instrument (Molecular Devices, Sunnyvale, Calif.). To determine a functional inhibitory action of the compounds on muscarinic receptors, the reconstituted compounds are added (25 μl compound/well) to the assay plate and pre-incubated for 15 min prior to adding 25 μl of Carbachol at 3× the EC80 for each muscarinic subtype. Alternatively, the compounds can be co-applied simultaneously with the agonist. In both assay modes, the fluorescence is recorded for 60 sec (excitation wavelength is […] and emission wavelength 540 nm) using the FLIPR 3 instrument.
(§5) The potency, efficacy and selectivity of the muscarinic compounds were evaluated by screening the compound activity across the whole family (M1 to M5 cells). Compounds were also screened for activity on other proteins such as other GPCRs and ion channels to determine selectivity on M4 receptors.
Background: Calcium assays in cells follow changes in intracellular calcium, usually with a dye or a luminescent sensor.

In the next assay the target is T2, M4 muscarinic receptor (Homo sapiens, UniProt P08173).
T2 construct: expressed in transfected cells; host or cells: CHO (M4-CHO)
T2 sequence (P08173 1-479): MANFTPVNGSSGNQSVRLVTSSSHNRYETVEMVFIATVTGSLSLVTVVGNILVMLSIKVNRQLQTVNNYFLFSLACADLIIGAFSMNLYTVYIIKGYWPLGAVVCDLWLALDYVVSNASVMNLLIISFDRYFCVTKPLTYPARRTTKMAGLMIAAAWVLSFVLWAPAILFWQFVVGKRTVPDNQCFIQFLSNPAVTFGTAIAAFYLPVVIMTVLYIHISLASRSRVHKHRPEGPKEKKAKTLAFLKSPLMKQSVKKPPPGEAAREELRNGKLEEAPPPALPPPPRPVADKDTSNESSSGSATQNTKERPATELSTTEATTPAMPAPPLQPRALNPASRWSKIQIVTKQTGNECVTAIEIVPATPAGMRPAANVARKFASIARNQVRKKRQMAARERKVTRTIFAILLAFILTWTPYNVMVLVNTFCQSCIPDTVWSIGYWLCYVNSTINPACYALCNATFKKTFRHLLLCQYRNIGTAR
The assay is described as follows: Functional mobilization of intracellular calcium (FLIPR), M4-CHO cells. It is filed as cell-based. The settings on record: for Emax: 100% efficacy is the maximum response obtained using Carbachol as a control; for M4 Activity: M4-CHO cells, FLIPR calcium mobilization. As for the experimental part: as §1, §2, §3, §4, §5

As for `CCOC(=O)N1CC(CN2CCC3(CC2)CN(C(C)=O)Cc2ccccc23)C1` [compound 1], on M1 muscarinic receptor, the Emax fell in the range of 25 to 100% and the “M1 Activity” value is “++ (activity was measured to be from 1.0 μM to 5.0 μM)”. Also, at M4 muscarinic receptor, the Emax is less than 25% and the “M4 Activity” value is given as “++ (activity was measured to be from 1.0 μM to 5.0 μM)”.

In the case of `CC(=O)N1Cc2ccccc2C2(CCN(CC3CCC(C)=CC3C)CC2)C1` (stereo not drawn) [compound 2], the Emax on M1 muscarinic receptor and at M4 muscarinic receptor was less than 25% in each case.

As to `CN(C)S(=O)(=O)N1Cc2ccccc2C2(CCN(C3CC4CCC(C3)N4C(=O)O[C@@H]3CCOC3)CC2)C1` (stereo partly drawn) [compound 3], at M1 muscarinic receptor, the Emax lay in the range of 25 to 100% and the “M1 Activity” value is given as “+++ (activity was measured to be less than 1.0 μM)”. Also, at M4 muscarinic receptor, the maximum response (Emax) was 25 to 100% and the “M4 Activity” value was “+++ (activity was measured to be less than 1.0 μM)”.

`CC(=O)N1Cc2ccccc2C2(CCN(C3(C)CCCCC3)CC2)C1` [compound 4, 1-(1′-(1-methylcyclohexyl)-1H-spiro[isoquinoline-4,4′-piperidine]-2(3H)-yl)ethanone]: on M1 muscarinic receptor, the maximal response (Emax) fell in the range of 25 to 100% and the “M1 Activity” value is recorded as “++ (activity was measured to be from 1.0 μM to 5.0 μM)”. Besides, at M4 muscarinic receptor, the Emax was in the range of 25 to 100% and the “M4 Activity” value is listed as “+++ (activity was measured to be less than 1.0 μM)”.

Consider `CC(=O)N1Cc2ccccc2C2(CCN(Cc3ccncc3)CC2)C1` [compound 5], for which, on M1 muscarinic receptor, the Emax is less than 25% and the “M1 Activity” value was “+ (activity was measured to be greater than 5.0 μM)”. For the same molecule, on M4 muscarinic receptor, the Emax was less than 25% and the “M4 Activity” value is recorded as “+ (activity was measured to be greater than 5.0 μM)”.

`CCOC(=O)N1CCC(N2CCC3(CC2)CN(C(=O)CC)Cc2ccccc23)CC1` [compound 6]: at M1 muscarinic receptor, the Emax was in the range of 25 to 100% and the “M1 Activity” value is recorded as “+++ (activity was measured to be less than 1.0 μM)”. Also, at M4 muscarinic receptor, the maximal effect (Emax) was in the range of 25 to 100% and the “M4 Activity” value is recorded as “+++ (activity was measured to be less than 1.0 μM)”.

In the case of `CCCOC(=O)N1C2CCC1CC(N1CCC3(CC1)CN(C(=O)N(C)C)Cc1ccccc13)C2` (stereo not drawn) [compound 7], on M1 muscarinic receptor, the Emax lay in the range of 25 to 100% and the “M1 Activity” value is on record as “+++ (activity was measured to be less than 1.0 μM)”. Further, at M4 muscarinic receptor, the Emax was 25 to 100% and the “M4 Activity” value is recorded as “+++ (activity was measured to be less than 1.0 μM)”.

Take `CCOC(=O)N1C2CCC1CC(N1CCC3(CC1)CN(C(=O)OC(C)C)Cc1ccccc13)C2` (stereo not drawn) [compound 8]: on M1 muscarinic receptor, the Emax fell in the range of 25 to 100% and the “M1 Activity” value was “+++ (activity was measured to be less than 1.0 μM)”. At M4 muscarinic receptor, the Emax fell in the range of 25 to 100% and the “M4 Activity” value is listed as “+++ (activity was measured to be less than 1.0 μM)”.

Consider `CCOC(=O)N1CCC(N2CCC3(CC2)CN(CC#Cc2ccccc2)Cc2ccccc23)CC1` [compound 9], for which, at M1 muscarinic receptor, the Emax was in the range of 25 to 100% and the “M1 Activity” value was “+++ (activity was measured to be less than 1.0 μM)”. On M4 muscarinic receptor, the Emax is 25 to 100% and the “M4 Activity” value is “+++ (activity was measured to be less than 1.0 μM)”.

Take `CCOC(=O)N1CCC(N2CCC3(CC2)CN(C(=O)C2CCCC2)Cc2ccccc23)CC1` [compound 10]: at M1 muscarinic receptor, the Emax was in the range of 25 to 100% and the “M1 Activity” value was “+++ (activity was measured to be less than 1.0 μM)”. Also, at M4 muscarinic receptor, the Emax is less than 25% and the “M4 Activity” value is recorded as “++ (activity was measured to be from 1.0 μM to 5.0 μM)”.

Take `CCOC(=O)N1CCC(CN2CCC3(CC2)CN(C(=O)OCC)Cc2ccccc23)CC1` [compound 11]: at M1 muscarinic receptor, the Emax lay within 25 to 100% and the “M1 Activity” value is on record as “+++ (activity was measured to be less than 1.0 μM)”. At M4 muscarinic receptor, the Emax is 25 to 100% and the “M4 Activity” value is reported as “+++ (activity was measured to be less than 1.0 μM)”.

For `CCOC(=O)N1C2CCC1CC(N1CCC3(CC1)CN(c1ccc(C)c(C)c1)Cc1ccccc13)C2` (stereo not drawn) [compound 12], at M1 muscarinic receptor, the Emax was 25 to 100% and the “M1 Activity” value was “+++ (activity was measured to be less than 1.0 μM)”. In addition, on M4 muscarinic receptor, the maximum response (Emax) was in the range of 25 to 100% and the “M4 Activity” value was “+++ (activity was measured to be less than 1.0 μM)”.

Regarding `CC(=O)N1Cc2ccccc2C2(CCN(C3CC4CCC(C3)N4C(=O)O[C@@H]3CCOC3)CC2)C1` (stereo partly drawn) [compound 13], at M1 muscarinic receptor, the Emax was 25 to 100% and the “M1 Activity” value was “+++ (activity was measured to be less than 1.0 μM)”. At M4 muscarinic receptor, the Emax lay within 25 to 100% and the “M4 Activity” value is “+++ (activity was measured to be less than 1.0 μM)”.

Consider `CCOC(=O)N1C2CCC1CC(N1CCC3(CC1)CN(C(=O)OC1CCCC1)Cc1ccccc13)C2` (stereo not drawn) [compound 14], for which, on M1 muscarinic receptor, the Emax lay in the range of 25 to 100% and the “M1 Activity” value is reported as “+++ (activity was measured to be less than 1.0 μM)”. Also, at M4 muscarinic receptor, the Emax lay within 25 to 100% and the “M4 Activity” value is on record as “+++ (activity was measured to be less than 1.0 μM)”.

Consider `CCOC(=O)N1C2CCC1CC(N1CCC3(CC1)CN(C(=O)c1cc(C)nn1C(C)(C)C)Cc1ccccc13)C2` (stereo not drawn) [compound 15], for which, on M1 muscarinic receptor, the maximal effect (Emax) lay within 25 to 100% and the “M1 Activity” value was “+++ (activity was measured to be less than 1.0 μM)”. Further, at M4 muscarinic receptor, the Emax was 25 to 100% and the “M4 Activity” value is reported as “+++ (activity was measured to be less than 1.0 μM)”.

Consider `CCOC(=O)N1CCC(N2CCC3(CC2)CN(C(=O)Nc2ccccc2)Cc2ccccc23)CC1` [compound 16], for which, at M1 muscarinic receptor, the Emax fell in the range of 25 to 100% and the “M1 Activity” value is recorded as “+++ (activity was measured to be less than 1.0 μM)”. Further, on M4 muscarinic receptor, the maximal effect (Emax) was 25 to 100% and the “M4 Activity” value is reported as “+++ (activity was measured to be less than 1.0 μM)”.

For `CCOC(=O)N1C2CCC1CC(N1CCC3(CC1)CN(C(=O)c1cccnc1)Cc1ccccc13)C2` (stereo not drawn) [compound 17], on M1 muscarinic receptor, the Emax lay within 25 to 100% and the “M1 Activity” value is on record as “+++ (activity was measured to be less than 1.0 μM)”. At M4 muscarinic receptor, the Emax was in the range of 25 to 100% and the “M4 Activity” value is reported as “+++ (activity was measured to be less than 1.0 μM)”.

The values above are taken from patent publication US7863449B2, “Modulators of muscarinic receptors” (Vertex Pharmaceuticals Incorporated, priority 2004, dated 2011).
